Assays:
soybean = assay: Test B pre/postemergence soybean; assay type: in vivo, Glycine max
Summary of the method: (§1)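 Herbicidal effect was estimated by eye on a ten-point control scale after plants spent twelve to sixteen days in a greenhouse following soil or foliar treatment. Foliar sprays targeted plants at one to four leaves; all doses were formulated in a non-phytotoxic solvent with surfactant.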

wild oat = assay: Test B pre/postemergence wild oat; assay type: in vivo, Avena fatua
Summary of the method: as §1

giant foxtail = assay: Test B pre/postemergence giant foxtail; assay type: in vivo, Setaria faberii
Summary of the method: as §1

smallflower flatsedge = assay: Test B flood test smallflower flatsedge; assay type: in vivo, Cyperus difformis; conditions: for S. Flatsedge plant response rating: scale of 0 to 10 where 0 is no effect and 10 is complete control
Summary of the method: (§2)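 Read-out is a visual response score from 0 (no effect) to 10 (complete control), assigned by comparison with untreated controls. Treatment was applied at the 2-leaf stage, and plants stayed in the greenhouse for twelve to sixteen days before scoring.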

surinam grass = assay: Test B pre/postemergence surinam grass; assay type: in vivo, Brachiaria decumbens
Summary of the method: as §1

blackgrass = assay: Test B pre/postemergence blackgrass; assay type: in vivo, Alopecurus myosuroides
Summary of the method: as §1

cocklebur = assay: Test B pre/postemergence cocklebur; assay type: in vivo, Xanthium strumarium
Summary of the method: as §1

morningglory = assay: Test B pre/postemergence morningglory; assay type: in vivo, Ipomoea hederacea
Summary of the method: as §1

purple nutsedge = assay: Test B pre/postemergence purple nutsedge; assay type: in vivo, Cyperus rotundus
Summary of the method: as §1

crabgrass = assay: Test B pre/postemergence crabgrass; assay type: in vivo, Digitaria sanguinalis
Summary of the method: as §1

rape = assay: Test B pre/postemergence rape; assay type: in vivo, Brassica napus
Summary of the method: as §1

corn = assay: Test B pre/postemergence corn; assay type: in vivo, Zea mays
Summary of the method: as §1

wheat = assay: Test B pre/postemergence wheat; assay type: in vivo, Triticum aestivum
Summary of the method: as §1

sugar beet = assay: Test B pre/postemergence sugar beet; assay type: in vivo, Beta vulgaris
Summary of the method: as §1

velvetleaf = assay: Test B pre/postemergence velvetleaf; assay type: in vivo, Abutilon theophrasti
Summary of the method: as §1

duck salad = assay: Test B flood test duck salad; assay type: in vivo, Heteranthera limosa
Summary of the method: as §2

[1] = Postemergence, Rate 125 g/ha, scale of 0 to 10 where 0 is no effect and 10 is complete control
[2] = Preemergence, Rate 62 g/ha, scale 0 to 10 (0 no effect, 10 complete control)
[3] = Preemergence, Rate 125 g/ha, 0 is no effect, 10 is complete control
[4] = Preemergence, Rate 250 g/ha, scale 0 to 10, 0 is no effect, 10 is complete control
[5] = Preemergence, Rate 500 g/ha, scale 0 to 10 (0 no effect, 10 complete control)
[6] = Rate 62 g/ha, Postemergence, scale of 0 to 10 where 0 is no effect and 10 is complete control
[7] = Rate 250 g/ha, Postemergence, scale 0 to 10, 0 is no effect, 10 is complete control
[8] = Rate 500 g/ha, Postemergence, scale 0 to 10
[9] = Rate 250 g/ha, Postemergence (flood test), scale 0 to 10, 0 is no effect, 10 is complete control

CC(C)N(C(=O)n1oc(=O)n(C)c1=O)c1ccc(Cl)cc1 [Compound 137]
Soybean plant response rating (soybean; [1]): 6
Soybean plant response rating (soybean; [2]): 0
Soybean plant response rating (0 to 10 scale) (soybean; [3]): 0
Soybean plant response rating (soybean; [4]): 3
Soybean plant response rating (soybean; [5]): 5
Soybean plant response rating (soybean; [6]): 5
Plant response rating, Soybean (soybean; [7]): 7
Soybean plant response rating (soybean; [8]): 8
Wild oats plant response rating (wild oat; [1]): 2
Wild oats plant response rating (wild oat; [2]): 5
Wild oats plant response rating (0 to 10 scale) (wild oat; [3]): 8
Wild oats plant response rating (wild oat; [4]): 9
Wild oats plant response rating (wild oat; [5]): 10
Wild oats plant response rating (wild oat; [6]): 1
Plant response rating, Wild oats (wild oat; [7]): 4
Wild oats plant response rating (wild oat; [8]): 5
Giant foxtail plant response rating (giant foxtail; [1]): 8
Giant foxtail plant response rating (giant foxtail; [2]): 8
Giant foxtail plant response rating (0 to 10 scale) (giant foxtail; [3]): 9
Giant foxtail plant response rating (giant foxtail; [4]): 10
Giant foxtail plant response rating (giant foxtail; [5]): 10
Giant foxtail plant response rating (giant foxtail; [6]): 8
Plant response rating, Giant foxtail (giant foxtail; [7]): 9
Giant foxtail plant response rating (giant foxtail; [8]): 9
S. Flatsedge plant response rating (smallflower flatsedge; Postemergence (flood test species), Rate 125 g/ha): 0
S. Flatsedge plant response rating (smallflower flatsedge; Rate 62 g/ha, Postemergence section, flood test species): 0
Plant response rating, S. Flatsedge (smallflower flatsedge; [9]): 0
B. signalgrass plant response rating (surinam grass; [1]): 4
B. signalgrass plant response rating (surinam grass; [2]): 3
B. signalgrass plant response rating (0 to 10 scale) (surinam grass; [3]): 5
B. signalgrass plant response rating (surinam grass; [4]): 7
B. signalgrass plant response rating (surinam grass; [5]): 9
B. signalgrass plant response rating (surinam grass; [6]): 0
Plant response rating, B. signalgrass (surinam grass; [7]): 5
B. signalgrass plant response rating (surinam grass; Rate 500 g/ha, Postemergence, scale of 0 to 10 where 0 is no effect and 10 is complete control): 8
Blackgrass plant response rating (blackgrass; [1]): 6
Blackgrass plant response rating (blackgrass; [2]): 7
Blackgrass plant response rating (0 to 10 scale) (blackgrass; [3]): 9
Blackgrass plant response rating (blackgrass; [4]): 9
Blackgrass plant response rating (blackgrass; [5]): 10
Blackgrass plant response rating (blackgrass; [6]): 5
Plant response rating, Blackgrass (blackgrass; [7]): 8
Blackgrass plant response rating (blackgrass; [8]): 8
Cocklebur plant response rating (cocklebur; [1]): 0
Cocklebur plant response rating (cocklebur; [2]): 0
Cocklebur plant response rating (0 to 10 scale) (cocklebur; [3]): 0
Cocklebur plant response rating (cocklebur; [4]): 0
Cocklebur plant response rating (cocklebur; [5]): 0
Cocklebur plant response rating (cocklebur; [6]): 0
Plant response rating, Cocklebur (cocklebur; [7]): 3
Cocklebur plant response rating (cocklebur; [8]): 4
Morningglory plant response rating (morningglory; [1]): 7
Morningglory plant response rating (morningglory; [2]): 0
Morningglory plant response rating (0 to 10 scale) (morningglory; [3]): 0
Morningglory plant response rating (morningglory; [4]): 0
Morningglory plant response rating (morningglory; [5]): 1
Morningglory plant response rating (morningglory; [6]): 7
Plant response rating, Morningglory (morningglory; [7]): 7
Morningglory plant response rating (morningglory; [8]): 8
Nutsedge plant response rating (purple nutsedge; [1]): 0
Nutsedge plant response rating (purple nutsedge; [2]): 0
Nutsedge plant response rating (0 to 10 scale) (purple nutsedge; [3]): 0
Nutsedge plant response rating (purple nutsedge; [4]): 0
Nutsedge plant response rating (purple nutsedge; [6]): 0
Plant response rating, Nutsedge (purple nutsedge; [7]): 3
Nutsedge plant response rating (purple nutsedge; [8]): 4
Crabgrass plant response rating (crabgrass; [1]): 8
Crabgrass plant response rating (crabgrass; [2]): 8
Crabgrass plant response rating (0 to 10 scale) (crabgrass; [3]): 10
Crabgrass plant response rating (crabgrass; [4]): 10
Crabgrass plant response rating (crabgrass; [5]): 10
Crabgrass plant response rating (crabgrass; [6]): 7
Plant response rating, Crabgrass (crabgrass; [7]): 9
Crabgrass plant response rating (crabgrass; [8]): 9
Rape plant response rating (rape; [2]): 0
Rape plant response rating (0 to 10 scale) (rape; [3]): 4
Rape plant response rating (rape; [4]): 10
Rape plant response rating (rape; [5]): 10
Rape plant response rating (rape; [6]): 0
Plant response rating, Rape (rape; [7]): 6
Rape plant response rating (rape; [8]): 7
Corn plant response rating (corn; [1]): 0
Corn plant response rating (corn; [2]): 0
Corn plant response rating (0 to 10 scale) (corn; [3]): 0
Corn plant response rating (corn; [4]): 0
Corn plant response rating (corn; [5]): 4
Corn plant response rating (corn; [6]): 0
Plant response rating, Corn (corn; [7]): 3
Corn plant response rating (corn; [8]): 5
Wheat plant response rating (wheat; [1]): 0
Wheat plant response rating (wheat; [2]): 0
Wheat plant response rating (0 to 10 scale) (wheat; [3]): 4
Wheat plant response rating (wheat; [4]): 5
Wheat plant response rating (wheat; [5]): 5
Wheat plant response rating (wheat; [6]): 0
Plant response rating, Wheat (wheat; [7]): 5
Wheat plant response rating (wheat; [8]): 6
Sugarbeets plant response rating (sugar beet; [1]): 3
Sugarbeets plant response rating (sugar beet; [2]): 6
Sugarbeets plant response rating (0 to 10 scale) (sugar beet; [3]): 10
Sugarbeets plant response rating (sugar beet; [4]): 10
Sugarbeets plant response rating (sugar beet; [5]): 10
Sugarbeets plant response rating (sugar beet; [6]): 3
Plant response rating, Sugarbeets (sugar beet; [7]): 5
Sugarbeets plant response rating (sugar beet; [8]): 6
Velvetleaf plant response rating (velvetleaf; [1]): 0
Velvetleaf plant response rating (velvetleaf; [2]): 3
Velvetleaf plant response rating (0 to 10 scale) (velvetleaf; [3]): 6
Velvetleaf plant response rating (velvetleaf; [4]): 7
Velvetleaf plant response rating (velvetleaf; [5]): 10
Velvetleaf plant response rating (velvetleaf; [6]): 0
Plant response rating, Velvetleaf (velvetleaf; [7]): 4
Velvetleaf plant response rating (velvetleaf; [8]): 5
Ducksalad plant response rating (duck salad; Postemergence (flood test species), Rate 125 g/ha, scale of 0 to 10 where 0 is no effect and 10 is complete control): 0
Ducksalad plant response rating (duck salad; Rate 31 g/ha, Postemergence section (flood test species), scale 0 to 10): 0
Ducksalad plant response rating (duck salad; Rate 62 g/ha, Postemergence section, flood test species, scale of 0 to 10 where 0 is no effect and 10 is complete control): 0
Plant response rating, Ducksalad (duck salad; [9]): 0

— patent US6737383B1, “Herbicidal oxadiazolidines” (priority 1999, dated 2004)
